Test results from US11278684B2, “Device and method of delivering particles in the upper respiratory tract” (SERVICES MEDICAUX ARNOLD ET JOAN ZIDULKA INC., priority 2016, dated 2022).

Assay: two rounds of testing on a patient with ciclesonide administered by the oral inhalation / nasal exhalation method
Type: in vivo
Details: one patient; two sprays of 200 micrograms aerosolized ciclesonide, four to six oral inhalations each followed by nasal exhalation, morning and evening for two weeks; FIG. 3 device
Source text: The Applicant has performed two rounds of testing on a patient suffering from post-nasal drip and upper laryngeal syndrome with an interval of two weeks between the rounds, each round consisting in administering a therapeutically effective dose of ciclesonide using the method of the present invention. […] In some embodiments, the therapeutically effective dose of ciclesonide for the treatment of upper airway cough syndrome is from 25 to 800 micrograms. Use of ciclesonide for the treatment of upper airway cough syndrome provides the advantage of avoiding fungal infections typically associated with administration of corticosteroid in the posterior nasal region, pharynx and the larynx.
In conducting the rounds of testing, the Applicant used the embodiment of the oral delivery device of the present invention shown in FIG. 3. […] It should be noted that in some embodiments, the effective volume is greater or smaller than 375 milliliters. In operation, the patient released two sprays of aerosolized ciclesonide into the oral delivery device, each one of the sprays containing 200 micrograms of ciclesonide, and performed four to six oral inhalations, each one of the inhalations being followed by a nasal exhalation into the ambient atmosphere. Each one of the inhalations drew ambient air into the oral delivery device to sweep in an additional amount of aerosolized ciclesonide. […]

CC(C)C(=O)OCC(=O)[C@@]12O[C@H](C3CCCCC3)O[C@@H]1C[C@H]1[C@@H]3CCC4=CC(=O)C=C[C@]4(C)[C@H]3[C@@H](O)C[C@@]12C [ciclesonide]
patient-reported symptoms of upper airway cough syndrome following each round: significant alleviation of the symptoms
